One experiment concerns the target αvβ6 (Homo sapiens (Human), UniProt P06756+P18564). Nature of the experiment: αVβ6–LAP-TGF β1 integrin binding assay (integrin-coupled beads, flow cytometry). Conditions: for IC50: ligand LAP TGF-β1; for αvβ8/αvβ6: ratio of αvβ8 IC50 to αvβ6 IC50. The source says: (§1) All αV Integrins are known to bind to proteins with a RGD motif. Two RGD ligands were used in this study: Vitronectin (VN) as a ligand for αVβ3 and αVβ5 (Wayner et al., J. Cell Biol., 113 (4), 919-929, 1991), and LAP TGF-β1 (LAP1) as a ligand for αVβ6 and αVβ8 (Rognoni et al., Nat. Med., 20(4): 350-359, 2014). CWHM12 was used as a positive control for αVβ6 and αVβ8 (Henderson et al., Nat. Med. 19(12), 10.1038/nm.3282 2013), and Cilengitide as a positive control for αVβ3 and αVβ5 (Kumar et al., J. Pharmacol. Exp. Ther., 283, 843-853, 1997).
(§2) The integrin coupled Dyna beads were allowed to interact with respective ligands. The integrin-ligand complex was detected with either Primary/Secondary Antibody conjugated with Fluorescein Isothiocyanate (FITC). For αVβ3 and αVβ5, Vitronectin was used as a ligand and a primary antibody conjugated with FITC (Anti-VN-FITC Ab) was used to detect the interaction. For αVβ6 and αVβ8, LAP-TGF (31 was used as ligand and a primary antibody against LAP1 (Anti-LAP1 Ab) and a secondary antibody conjugated with FITC were used to detect the αVβ6/αVβ8-LAP-TGF (31 complex. Fluorescence was measured by Flow Cytometry analysis.
(§3) 5 mg of Dyna beads were weighed in a low protein binding microfuge (Eppendorf) tube (1.5 mL volume). The beads were re-suspended in 1 mL of Sodium Phosphate Buffer and vortexed at high speed for 30 seconds. The tube was then placed in a tube roller and tilt rotated for 10 min. After tilt rotation, the tube was placed on the Magna Spin and the beads were allowed to settle. The supernatant was discarded and the beads were washed three times. The beads were then re-suspended in 100 μL of Sodium Phosphate Buffer and 20 μL of washed beads were distributed into 5 low protein binding Eppendorf tubes (1 mg of beads in each tube). The beads were used for coupling integrins.
(§4) 20 μL of (1 mg) of beads were mixed with 20 μL of integrins (20 μg) and 20 μL of 3 M Ammonium Sulfate solution (final concentration of ammonium sulfate was 1M) to achieve a Bead: Protein ratio of 5 mg:100 μg. The solution was mixed gently and placed in a tube roller and incubated at 37° C. for 16 hours.
(§5) αVβ6/αVβ8 coupled beads were treated with the ligand LAP TGF-β1 (LAP1) at room temperature for 3 hours. The complex (Integrin+Ligand) was then treated with primary Ab (Anti-LAP1 Ab) overnight at 4° C. The whole complex (Integrin+Ligand+Primary Ab) was treated with Secondary Ab conjugated with FITC and incubated for 2 hours. The complex was analyzed by either plate reader or Flow Cytometer.
(§6) 10 μL of αVβ6/αVβ8 coupled beads were taken for the experiment. The concentration of integrins was 10 nM. 10 μL of LAP1 was taken (10 nM for aVβ6 and 20 nM for aVβ8). Reaction between integrin coupled beads and LAP1 was considered as the full reaction, and reaction without LAP1 or a compound of the disclosure was considered as the blank reaction. The samples were incubated in low protein binding tubes at room temperature for 3 hours. The tubes were briefly spun and placed in a Magna spin. The supernatant was removed. The beads were washed with assay buffer twice to remove excess LAP1 and then re-suspended in […] assay buffer containing 1:200 anti-LAP1 Ab (primary Ab). The tubes were placed in a tube roller and incubated at 4° C. overnight. After a brief spin, the tubes were then placed in a Magna spin and the supernatant was removed. The beads were washed with assay buffer twice to remove excess primary Ab and then re-suspended in 150 μL of assay buffer containing 1:500 secondary Ab conjugated with FITC. The tubes were incubated at room temperature for 2 hours in a tube roller. After a brief spin, the tubes were placed in a Magna spin and the supernatant was removed. The beads were washed with assay buffer twice followed by PBS. The beads were then re-suspended in 300 μL of PBS and analyzed by a Flow Cytometer (BD FACSCalibur, Software—BDcell Quest Pro Version 6). […]
(In flow cytometry, cells or beads pass a laser one at a time.)

A further experiment has as its target αvβ8 (Homo sapiens (Human), UniProt P06756+P26012). Briefly: αVβ8–LAP-TGF β1 integrin binding assay (integrin-coupled beads, flow cytometry). Conditions: ligand LAP TGF-β1.
From the text: as §1, §2, §3, §4, §5, §6

Another experiment concerns the target αvβ3 (Homo sapiens (Human), UniProt P05106+P06756). Briefly: αVβ3–vitronectin integrin binding assay (integrin-coupled beads, flow cytometry). Conditions: ligand vitronectin.
From the text: as §1, §2, §3, §4
αVβ3/αVβ5 coupled beads were treated with the ligand at room temperature for 3 hours. The complex (Integrin+Ligand) was then treated with Anti-Vitronectin Ab conjugated with FITC overnight at 4° C. The complex was analyzed by either plate reader or Flow Cytometer.
10 μL of αVβ3/αVβ5 coupled beads were taken for the experiment. The concentration of integrins was 10 nM. 10 μL of vitronectin was taken. The concentration was 10 nM. Reaction between integrin coupled beads and vitronectin was considered as the full reaction, and reaction without vitronectin or a compound of the disclosure was considered as the blank reaction. The samples were incubated in low protein binding tubes at room temperature for 3 hours. The tubes were briefly spun and placed in a Magna spin. The supernatant was then removed. The beads were washed with assay buffer twice to remove excess vitronectin and then re-suspended in 150 μL of assay buffer containing 1:500 Anti-vitronectin Ab conjugated with FITC. The tubes were placed in a tube roller and incubated at 4° C. overnight. […] The beads were then re-suspended in […] PBS and analyzed by a Flow Cytometer (BD FACSCalibur, Software—BD Cell Quest Pro Version 6).
The samples were acquired using a BD FACSCalibur system and analyzed with BD Cell quest pro Version 6. […] Percentage of binding was calculated with respect to full reaction. […]

Here are results for five molecules from US11685738B2, “Fluorinated tetrahydronaphthyridinyl nonanoic acid derivatives and uses thereof” (OcuTerra Therapeutics, Inc., priority 2015, dated 2023).

One may read the IC50 as the midpoint of a concentration-inhibition curve.

Chain of αvβ8 (P06756 31-992): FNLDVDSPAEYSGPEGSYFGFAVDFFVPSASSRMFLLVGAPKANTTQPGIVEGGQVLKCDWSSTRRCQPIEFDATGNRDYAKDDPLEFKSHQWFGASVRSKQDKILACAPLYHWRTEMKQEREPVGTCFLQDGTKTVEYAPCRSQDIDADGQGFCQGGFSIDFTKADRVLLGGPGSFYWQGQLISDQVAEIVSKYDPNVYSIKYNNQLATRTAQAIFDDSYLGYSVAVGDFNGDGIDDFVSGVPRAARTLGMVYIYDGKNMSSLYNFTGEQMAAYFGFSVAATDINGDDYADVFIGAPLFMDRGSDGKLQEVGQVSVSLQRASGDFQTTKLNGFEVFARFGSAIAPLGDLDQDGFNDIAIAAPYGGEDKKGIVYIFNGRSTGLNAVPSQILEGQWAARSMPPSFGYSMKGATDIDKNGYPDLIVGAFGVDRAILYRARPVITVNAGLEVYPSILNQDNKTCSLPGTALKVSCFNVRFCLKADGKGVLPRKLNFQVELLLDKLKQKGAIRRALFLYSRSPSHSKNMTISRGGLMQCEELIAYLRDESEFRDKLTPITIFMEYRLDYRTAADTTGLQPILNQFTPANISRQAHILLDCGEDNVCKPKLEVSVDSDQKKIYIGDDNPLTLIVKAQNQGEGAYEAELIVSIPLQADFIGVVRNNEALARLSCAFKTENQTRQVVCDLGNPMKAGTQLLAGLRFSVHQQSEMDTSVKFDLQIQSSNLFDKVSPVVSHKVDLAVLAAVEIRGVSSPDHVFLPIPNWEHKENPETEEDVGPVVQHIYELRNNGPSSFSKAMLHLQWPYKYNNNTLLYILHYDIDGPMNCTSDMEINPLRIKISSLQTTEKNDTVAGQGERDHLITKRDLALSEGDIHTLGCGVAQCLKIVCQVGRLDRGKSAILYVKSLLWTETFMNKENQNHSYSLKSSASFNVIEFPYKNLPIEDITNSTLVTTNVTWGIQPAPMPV
Chain of αvβ8 (P26012 43-684): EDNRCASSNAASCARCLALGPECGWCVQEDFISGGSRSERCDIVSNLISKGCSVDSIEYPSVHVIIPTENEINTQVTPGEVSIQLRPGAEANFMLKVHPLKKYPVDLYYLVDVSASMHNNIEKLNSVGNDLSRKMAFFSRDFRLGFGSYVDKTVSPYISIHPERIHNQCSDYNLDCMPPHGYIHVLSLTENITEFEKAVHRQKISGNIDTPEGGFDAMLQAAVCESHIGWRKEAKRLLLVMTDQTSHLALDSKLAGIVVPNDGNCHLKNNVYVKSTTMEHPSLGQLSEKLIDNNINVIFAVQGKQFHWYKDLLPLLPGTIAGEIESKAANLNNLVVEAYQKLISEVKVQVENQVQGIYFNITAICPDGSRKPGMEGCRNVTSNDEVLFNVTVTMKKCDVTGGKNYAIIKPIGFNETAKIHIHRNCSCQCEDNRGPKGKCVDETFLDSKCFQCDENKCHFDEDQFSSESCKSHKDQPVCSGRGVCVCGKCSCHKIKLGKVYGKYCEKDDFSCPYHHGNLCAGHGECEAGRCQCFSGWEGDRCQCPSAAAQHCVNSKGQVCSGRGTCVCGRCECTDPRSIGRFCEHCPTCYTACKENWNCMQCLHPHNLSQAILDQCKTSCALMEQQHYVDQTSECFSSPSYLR
Chain of αvβ3 (P06756 31-992): as the sequence (P06756 31-992) above
Chain of αvβ3 (P05106 27-718): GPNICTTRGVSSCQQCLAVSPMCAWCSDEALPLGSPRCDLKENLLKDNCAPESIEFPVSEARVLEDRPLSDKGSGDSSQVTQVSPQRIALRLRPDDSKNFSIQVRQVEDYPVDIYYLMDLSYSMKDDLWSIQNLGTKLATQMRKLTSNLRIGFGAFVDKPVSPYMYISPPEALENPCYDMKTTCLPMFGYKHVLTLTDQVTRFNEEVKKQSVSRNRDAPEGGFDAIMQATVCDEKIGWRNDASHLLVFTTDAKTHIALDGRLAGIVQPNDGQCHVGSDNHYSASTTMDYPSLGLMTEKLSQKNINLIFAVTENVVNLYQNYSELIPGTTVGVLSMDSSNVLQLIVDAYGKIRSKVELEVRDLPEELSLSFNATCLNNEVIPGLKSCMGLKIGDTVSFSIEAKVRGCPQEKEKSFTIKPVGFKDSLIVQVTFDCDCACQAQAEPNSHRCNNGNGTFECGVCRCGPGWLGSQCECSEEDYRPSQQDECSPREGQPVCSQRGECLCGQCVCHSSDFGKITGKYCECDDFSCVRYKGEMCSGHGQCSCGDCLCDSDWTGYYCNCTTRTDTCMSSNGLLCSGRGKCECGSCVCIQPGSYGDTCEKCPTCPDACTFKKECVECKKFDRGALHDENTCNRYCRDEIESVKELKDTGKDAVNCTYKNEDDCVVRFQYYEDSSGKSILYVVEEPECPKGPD
Chain of αvβ6 (P06756 31-992): as the sequence (P06756 31-992) above
Chain of αvβ6 (P18564 22-707): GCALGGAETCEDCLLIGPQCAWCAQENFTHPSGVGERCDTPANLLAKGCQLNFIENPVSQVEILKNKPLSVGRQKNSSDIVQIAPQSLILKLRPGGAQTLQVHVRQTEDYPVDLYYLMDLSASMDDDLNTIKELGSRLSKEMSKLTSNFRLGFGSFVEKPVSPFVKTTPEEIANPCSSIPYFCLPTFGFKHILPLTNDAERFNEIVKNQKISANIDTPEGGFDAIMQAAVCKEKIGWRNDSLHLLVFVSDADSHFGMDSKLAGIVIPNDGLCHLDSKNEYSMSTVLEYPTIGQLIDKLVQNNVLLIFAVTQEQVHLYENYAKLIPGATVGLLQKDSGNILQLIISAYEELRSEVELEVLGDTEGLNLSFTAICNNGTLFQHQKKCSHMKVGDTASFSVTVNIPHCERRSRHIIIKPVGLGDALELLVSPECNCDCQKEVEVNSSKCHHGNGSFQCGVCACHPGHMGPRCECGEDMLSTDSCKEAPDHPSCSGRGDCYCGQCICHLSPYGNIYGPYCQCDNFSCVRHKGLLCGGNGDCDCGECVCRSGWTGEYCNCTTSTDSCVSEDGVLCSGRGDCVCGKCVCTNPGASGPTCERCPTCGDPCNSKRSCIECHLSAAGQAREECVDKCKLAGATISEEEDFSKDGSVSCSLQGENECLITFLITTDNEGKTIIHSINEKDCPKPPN

As to `O=C(O)CC(CCCCCCc1ccc2c(n1)NCCC2)c1cnc(C(F)(F)F)nc1` (centres unmarked) [Compound A2, 9-(5,6,7,8-tetrahydro-1,8-naphthyridin-2-yl)-3-(2-(trifluoromethyl)pyrimidin-5-yl)nonanoic acid], the values for the IC50 at αvβ6, at αvβ8 and on αvβ3 were 11.6 nM, 78.1 nM and 9 nM, respectively. At αvβ6, the αvβ8/αvβ6 was 6.71.
As for `O=C(O)CC(CCCCCCc1ccc2c(n1)NCCC2)c1ccc(OC(F)F)nc1` (centres unmarked) [Compound A3, 3-(6-(difluoromethoxy)pyridin-3-yl)-9-(5,6,7,8-tetrahydro-1,8-naphthyridin-2-yl)nonanoic acid], the IC50 on αvβ6 was determined as 18.2 nM; on αvβ8 it was 79.3 nM; on αvβ3 it was 0.57 nM. The αvβ8/αvβ6 on αvβ6 was found to be 4.37.
In the case of `O=C(O)CC(CCCCCCc1ccc2c(n1)NCCC2)c1cnc2ccc(F)cc2c1` (centres unmarked) [Compound A4, 3-(6-fluoroquinolin-3-yl)-9-(5,6,7,8-tetrahydro-1,8-naphthyridin-2-yl)nonanoic acid], the IC50 on αvβ6 was 5.69 nM; on αvβ8, 21.4 nM; at αvβ3, 1.4 nM. Also, the αvβ8/αvβ6 at αvβ6 turned out to be 3.75.
In the same order, the values of `O=C(O)CC(CCCCCCc1ccc2c(n1)NCCC2)c1cnc2cc(F)ccc2c1` (centres unmarked) [Compound A5, 3-(7-fluoroquinolin-3-yl)-9-(5,6,7,8-tetrahydro-1,8-naphthyridin-2-yl)nonanoic acid] are 9.97 nM, 63.9 nM, 65.7 nM and 6.41.
The matching figures for `O=C(O)CC(CCCCCCc1ccc2c(n1)NCCC2)c1ccc(Cl)c(C(F)(F)F)c1` (centres unmarked) [Compound A23, 3-(4-chloro-3-(trifluoromethyl)phenyl)-9-(5,6,7,8-tetrahydro-1,8-naphthyridin-2-yl)nonanoic acid]: 14.8 nM, 151 nM, 4.3 nM and 10.18.
